The values below come from ChEMBL document CHEMBL3507680, “University of Dundee, Gates Library screen for HepG2 cell viability”.

Each structure is given as a SMILES string.

The nature of this data set: Human HepG2 cell viability assay in 384 well format. Set-up: dose 125 nL, time 70.5 hour; concentration not given beside the values. The conditions noted are these: HepG2 cells, read-out: Inhibition. Format: toxicity, cell-based.
As to `Cc1ccc(-c2cc(C(=O)NCCN3CCCS3(=O)=O)[nH]n2)cc1`, the cytotoxicity at 70.5 h turned out to be 11.7%.
Next, `COc1ccc(OC)c(NC(=O)c2c(C)cn(C)c2CC(=O)O)c1`: -5.28%; `Cc1cnn(CC2CCCN2C(=O)c2cccc(S(C)(=O)=O)c2)c1` (centres undefined): -2.98%.
With `Cc1cccc(C2CCCN(C(=O)CN3CCCC3=O)C2)c1` (centres undefined) the figure was -21.9%; with `Cn1ncc2c1C(COCC1CC1)CN(Cc1ccncc1)C2` (centres undefined), -8.73%; with `COc1cccc(C(=O)N2CCOC3(CCCN(C(C)=O)C3)C2)c1` (centres undefined), -16.1%.
With `CCOCCn1nc(C)cc1C(=O)N1CCC2(CC1)[C@H](O)C[C@@H]2OCC` the figure was 0.508%; with `Cc1nnc2n1CCN(C(=O)CN1C(=O)CCOc3ccccc31)C2`, -7.17%; with `CC(c1cccc(Cl)c1)N(C)Cc1nc2c(cnn2C)c(=O)[nH]1` (centres undefined), -1.63%.
For the compound `Cc1ccc(OC2(C(=O)O)CCN(C(=O)CCc3ccco3)CC2)cn1`, the cytotoxicity at 70.5 h is -0.99%.
With `C[C@@H]1CN(S(=O)(=O)c2ccc(F)cc2F)C[C@]1(C)O` the figure was -1.56%.
Next, `O=C(O)CC(CC(=O)NCc1ccsc1)c1cccs1` (centres undefined): -5.7%.
Next, `CCCN1CCC(Nc2nc(CC)ns2)CC1`: -2.52%; `COC(=O)c1cccc(C2CNCCN2C(C)=O)c1` (centres undefined): 21.6%.
As for `CCN(CC)[C@H]1C[C@@H](Cc2cc(CO)on2)C1(C)C`, the cytotoxicity at 70.5 h was -7.1%.
With `O=C(Nc1cccnc1)NC1CCN(c2ccccc2OC(F)F)C1` (centres undefined) the figure was -3.6%.
Consider `CCC1c2cccn2CCN1C(=O)c1cc(OC)nc(OC)n1` (centres undefined), for which the cytotoxicity at 70.5 h was found to be 44.1%.
With `Cc1nc(CN2CCN(C(=O)Cc3cccc(Cl)c3)CC2)no1` the figure was -5.05%.
With `Cc1nnc(CNCC2(O)CCCN(Cc3ccc(F)c(F)c3)C2=O)[nH]1` (centres undefined) the figure was -0.578%; with `COc1ccc(-c2cc(C(=O)N3N=C(C)CC3(O)C(F)(F)F)[nH]n2)cc1` (centres undefined), 12.4%; with `O=C(c1cn(-c2ccc(C(F)(F)F)cn2)nn1)N1CCCCCC1`, -3.98%.
With `Cc1ccc(N2CC3(CCN(C(=O)c4ccoc4)C3)C2)nn1` the figure was -12.3%; with `COCc1noc(Cn2c(C)cc(C(F)(F)F)cc2=O)n1`, -10.7%.
As for `Cc1ccc(C(C)NCc2cn(CCC(N)=O)c3ccccc23)cc1C` (centres undefined), the cytotoxicity at 70.5 h was -3.87%.
With `Cc1cc(CCC(=O)N2CCCC2)nc(C2CCCN2)n1` (centres undefined) the figure was -1.61%; with `COCCOc1ccccc1C(=O)N1CCCC(c2cc(C)[nH]n2)C1` (centres undefined), 0.71%; with `CC(C)(CNC(=O)Nc1nccs1)N1CCOCC1`, -6.21%.
In the case of `COC(=O)CCN(CC1CCCO1)C(=O)CCc1ccc(OC)cc1` (centres undefined), the cytotoxicity at 70.5 h is -7.89%.
For the compound `Cc1nn(C)c2nc3c(c(C(=O)/N=c4\[nH]nc(C(C)C)s4)c12)CCC3`, the cytotoxicity at 70.5 h is -18.8%.
For `CC(C)c1ccc(OCCC(=O)N2CCCC(C(N)=O)C2)cc1` (centres undefined), the cytotoxicity at 70.5 h is -5.32%.
As for `CN1CC(=O)N(c2ccsc2)CC12CCN(C(=O)N1CCCC1)C2` (centres undefined), the cytotoxicity at 70.5 h was -7.42%.
With `CN(C)[C@@H]1CCN(C(=O)NC2CCCC2)[C@H]1Cc1ccncc1` the figure was -9.4%; with `c1ccc(OCC2CC3(CCN(c4ncccn4)CC3)CO2)nc1` (centres undefined), -19.6%.
Next, `NC(=O)C1CCN(C(=O)NCCOc2ccc3c(c2)OCO3)C1` (centres undefined): -8.31%.
Take `CSc1ccccc1C(=O)N1CCOC(CCN(C)C)C1` (centres undefined): the cytotoxicity at 70.5 h was -15.3%.
Next, `Cc1[nH]/c(=N\C(=O)c2csc(NC3CC3)n2)sc1C`: -5.91%; `O=S(=O)(Nc1cn[nH]c1)c1ccc(Br)c(F)c1`: -2.34%.
Next, `N[C@H]1CN(S(=O)(=O)Cc2ccccc2)C[C@@H]1C1CC1`: -6.71%; `CCNc1nc(C(=O)N(C)Cc2nc(CC)no2)cs1`: -109%.
Next, `Cc1c(NC(=O)NCC(C)N2CCOCC2)cccc1OC(F)F` (centres undefined): -0.748%.
On to `O=C(N1CCCC1)N1C[C@H]2CCC[C@@]2(COCc2ccccn2)C1`, for which the cytotoxicity at 70.5 h is -10.8%.
Regarding `CC(C)C1CN(S(=O)(=O)Cc2cccc(C#N)c2)CCS1` (centres undefined), the cytotoxicity at 70.5 h is -9.85%.
Next, `COc1ccc(-n2cc(CCO)cn2)cc1C`: -9.33%.
With `CCNc1cc2c(nn1)CCN(C(=O)C1COc3ccccc3C1)C2` (centres undefined) the figure was -12.3%; with `C[C@]1(O)CCN(Cc2cncs2)C[C@@H]1Oc1cccc(F)c1`, -0.0777%.
Next, `O=C(NCC1(c2ccc(F)cc2)CCCC1)N1CCOC(CO)C1` (centres undefined): 2.92%.
`Cc1noc(C)c1CN1C[C@@H](OCC(=O)N(C)C)[C@H]2OCCC[C@H]21`: the cytotoxicity at 70.5 h is -9.4%.
With `O=C(CC1CNCCO1)N1CCC(c2cc(N3CCCC3)ncn2)CC1` (centres undefined) the figure was 12.3%; with `C[C@@H]1CN(c2nc(O)cc(Cc3ccccc3F)n2)C[C@H](C)O1`, 19.5%; with `CC(C)[C@H]1COC(=O)N1CC(=O)N1CCCN(C(=O)c2ccoc2)CC1`, -8.34%.
With `c1ccc(OC[C@]23COC[C@H]2CN(c2ncccn2)C3)nc1` the figure was -9.18%; with `O=C(C1CC1)N1CCC2(COCc3cnc(N4CCOCC4)nc32)C1` (centres undefined), -12.6%.
Next, `CNC(=O)c1cccc(CCNC2CCSc3ccccc32)c1` (centres undefined): -3.79%.
Turning to `CCOC(=O)CC(c1ccc(OC)c(OC)c1)c1c(O)n[nH]c1C` (centres undefined), the cytotoxicity at 70.5 h was -15.2%.
Next, `CC(C)NC(=O)C1CCc2nnc(C(C)(C)C)n21` (centres undefined): -5.68%; `CN(C)C(C(=O)NCCn1cccc1)c1cccc(F)c1` (centres undefined): -4.48%.
Take `COCCN1C[C@@H]2CN(Cc3ccc(C)s3)CCC[C@]2(C(=O)O)C1`: the cytotoxicity at 70.5 h is 11.4%.
Next, `CC(C)n1ncc2c1NC(=O)CC21C(=O)Nc2c(Cl)cc(Br)cc21` (centres undefined): -0.17%.
As for `CCc1ccc(CN2CCC(CNS(=O)(=O)C3CC3)C2)nc1` (centres undefined), the cytotoxicity at 70.5 h is -2.29%.
Next, `COc1ccc(OCC2CCCN(c3nc(CO)cs3)C2)cc1` (centres undefined): -9.63%; `CCNC(=O)N(C)CCCc1n[nH]c(N)c1C#N`: 17.3%; `CC(C)c1nnc2n1CCN(C(=O)c1cc(Cl)c[nH]1)C2`: 0.408%.
With `O=C(NC1=NCCS1)C1CSCN1C(=O)C1CCCC1` (centres undefined) the figure was -12.4%; with `O=S(=O)(c1ccccc1)N1CCCCC1c1cc[nH]n1` (centres undefined), 21.8%.
With `Cc1cncc(C2CCN(Cc3ccncc3)CC2)n1` the figure was -7.83%; with `CC(c1ccc(F)cc1F)N1CCN(CCC(=O)O)CC1` (centres undefined), -6.34%.
Consider `Cn1cccc1CN(C(=O)CC(CC(=O)O)c1cccs1)C1CC1` (centres undefined), for which the cytotoxicity at 70.5 h was -9.4%.
Next, `CCOCc1ccc(CNC2=NCCCN2)cc1`: -2.49%; `Cc1ccc(CNCCC(O)(c2nccn2C)C(F)(F)F)o1` (centres undefined): -6.24%.
With `CN(CCCOc1ccccc1)Cc1nccn1C` the figure was -4.56%.
With `Cc1noc(Cl)c1CCC(=O)N1CCN(Cc2ccncc2)CC1` the figure was -4.95%; with `CCc1ccc(CNC(=O)CCc2nnc(-c3ccc(C)s3)o2)nc1`, -3.31%; with `COc1ccc(CC2(C(=O)O)CCN(c3nc(C)ncc3C)CC2)cc1`, -10.8%.
For the compound `O=S(=O)(NCCc1ccccc1C(F)(F)F)N1CCOCC1`, the cytotoxicity at 70.5 h is 23.1%.
Next, `O=C(c1ccn(-c2cccc(F)c2)n1)N1CCCC(n2cccn2)C1` (centres undefined): -15.2%.
With `CCOc1ccc(Br)cc1C1CCCN1` (centres undefined) the figure was 18.6%.
Turning to `CCNC(=O)[C@@H]1C[C@H](N)CN1C(=O)C1(c2ccc(OC)cc2)CCCC1`, the cytotoxicity at 70.5 h is -10.3%.
Next, `CCN(Cc1ccccn1)Cc1cc(Cl)ccc1OC`: 2.41%; `Cc1ccn(-c2cncc(C(N)=O)c2)n1`: -14.4%; `Cc1cccc(CN2C[C@@H]3CN(C(=O)c4conc4C)C[C@@H]3C2=O)c1`: -3.16%.
With `CC(C)N1CCCC(C(=O)NC(C)(C)c2nnc(N)s2)C1` (centres undefined) the figure was -12.2%.
Turning to `O=C(c1ccc(-c2ccsc2)nc1)N1CCCN(C2CCCCC2)CC1`, the cytotoxicity at 70.5 h was determined as 17%.
Turning to `COCC(=O)N1CCCn2c(CN3CCCCC3)nnc2C1`, the cytotoxicity at 70.5 h was -7.69%.
With `c1cnc(NCc2nnn3c2CN(Cc2cccs2)CCC3)nc1` the figure was -115%.
With `OCC(CO)Nc1nc(C(F)F)nc2ccccc12` the figure was -3.24%; with `Cc1nc(-c2ccsc2)ccc1C(=O)N1CCn2c(C)nnc2C1`, 11.2%; with `Cc1ccc(CNc2n[nH]c(C)n2)cc1`, -10.9%.
Next, `CC(C)NC(=O)[C@@H]1CN(Cc2ccc3c(c2)OCO3)C[C@H]2OCC[C@H]21`: -2.81%; `Cc1cccc(-c2ncc(CNC(C)Cc3ncccc3C)cn2)c1` (centres undefined): 48.7%.
`Cc1cc(C)cc(NC(=O)c2cnc(N3CCN(C)CC3)nc2C)c1`: the cytotoxicity at 70.5 h is -0.093%.
Next, `O=C(c1coc(-c2ccccc2)n1)N1CCCC1`: 3.66%; `COc1ccccc1CNC(=O)N1CCN(Cc2cc(C)on2)CC1`: -2.55%.
Next, `CC(C)c1nc(C2CCCN2CCS(C)(=O)=O)no1` (centres undefined): -12.9%; `CN(C)CCOc1ccc(CNC(=O)c2cccc3[nH]ncc23)cc1`: 9.57%; `CCC(C)N(C)CCNC(=O)NCc1cccc(-n2cncn2)c1` (centres undefined): -2.22%.
For the compound `COCC(C)NC(=O)CCCn1cnc2ccccc2c1=O` (centres undefined), the cytotoxicity at 70.5 h is -5.09%.
With `COC(=O)CC(c1ccc(OC)c(OC)c1)c1oc(C)cc(=O)c1O` (centres undefined) the figure was 5.4%; with `CCc1nnc(Nc2cccc(C3CCN(CC4CC4)CC3)n2)s1`, -7.67%; with `Cc1cc(C)c2c(N3CCN(C(=O)N4CCOCC4)CC3)ncnc2n1`, 30.5%.
